Data as given in patent publication US5486601A, “Trisazo dye, and aqueous ink composition containing the same” (priority 1993, dated 1996).
Where two headings read alike, the source gives them in different places.

Assays:
[1] = AMES test / mutagenicity as stated in general text; settings: dye intermediate
[2] = Solubility of dye (Na salt) in water; format: physicochemical
Protocol: Evaluation Method of Solubility of Dye
A Na salt (2 g) of the resulting dye was dissolved in water (10 g), and the dye solution was filtered and concentrated/dried to determine a solubility (g of dye/100 g of water) of the dye.

strain TA98 = experiment: AMES test (reverse mutagenicity test), strain TA98, with and without S-9; format: cell-based; settings: TA98, with and without S9, 20 to 5000 μg/plate
Protocol: (§1) Regarding specimen solutions containing the trisazo compounds (dyes) of the present invention obtained in Examples 1 to 9 and dyes of Comparative Examples 1 to 3, respectively, the total number of the mutant colony was determined using the strain TA98. When the resulting magnification is not more than 2, it is evaluated as "negative". On the other hand, when the resulting magnification is not less than 2, it is evaluated as "positive".
(§2) In Table 1, the modification in case that no drug-metabolizing active enzyme S-9 is added is shown in the column "-" and the modification in case that a drug-metabolizing active enzyme S-9 is added is shown in the column "+".

[3] = background statement on known dyes; cited from earlier work
[4] = AMES test (reverse mutagenicity test), strain TA98, with and without S-9; format: cell-based; settings: read-out: magnification of the total number of the mutant colony to the control
Protocol: as §1, §2

[5] = s9, TA98, with S9, 313 μg/plate
[6] = s9, TA98, with S9, 1250 μg/plate
[7] = s9, TA98, with S9, 5000 μg/plate
[8] = s9, TA98, without S9, 20 μg/plate
[9] = s9, TA98, without S9, 78 μg/plate
[10] = s9, TA98, without S9, 313 μg/plate
[11] = s9, TA98, without S9, 1250 μg/plate
[12] = s9, TA98, without S9, 5000 μg/plate

Structure (SMILES)	mutagenicity [1]	Solubility Dye(g)/water (100 g) [2]	Solubility Evaluation [2]	AMES Evaluation (strain TA98)	results of AMES test [3]	fold induction ([4]; s9, TA98, with S9, 20 μg/plate)	fold induction ([4]; s9, TA98, with S9, 78 μg/plate)	fold induction [4, 5]	fold induction [4, 6]	fold induction [4, 7]	fold induction [4, 8]	fold induction [4, 9]	fold induction [4, 10]	fold induction [4, 11]	fold induction [4, 12]
Nc1ccc(C2(c3ccc(N)cc3)CCCCC2)cc1 [1,1-bis(4-aminophenyl)cyclohexane]	negative	–	–	–	–	–	–	–	–	–	–	–	–	–	–
Nc1ccc(N=Nc2ccc(N=Nc3c(S(=O)(=O)[O-])cc4cc(S(=O)(=O)[O-])c(N=Nc5ccc(N=Nc6ccc(N)cc6N)cc5)c(O)c4c3N)cc2)c(N)c1.[Na+].[Na+] [Comparative Example 1, C.I. Direct Black 19, reference compound]	–	20 g of dye/100 g of water	.circleincircle. (solubility is not less than 15)	Positive (when the resulting magnification is not less than 2, it is evaluated as "positive")	false positive or positive	–	–	–	–	–	–	–	–	–	–
Cc1cc(-c2ccc(N=Nc3c(S(=O)(=O)[O-])cc4cc(S(=O)(=O)[O-])c(N=Nc5ccccc5)c(O)c4c3N)c(C)c2)ccc1N=Nc1ccc(N)cc1N.[Na+].[Na+] [Comparative Example 2, C.I. Direct Black 154, reference compound]	–	20 g of dye/100 g of water	.circleincircle. (solubility is not less than 15)	Positive (when the resulting magnification is not less than 2, it is evaluated as "positive")	false positive or positive	–	–	–	–	–	–	–	–	–	–
CCCCc1ccc(N=Nc2c(S(=O)(=O)O)cc3cc(S(=O)(=O)O)c(N=Nc4ccc(C5(c6ccc(N=Nc7ccc(N)cc7O)cc6)CCCCC5)cc4)c(N)c3c2O)cc1 [Example 1]	–	12 g of dye/100 g of water	.smallcircle. (solubility is within a range from 10 to 15)	Negative (When the resulting magnification is not more than 2, it is evaluated as "negative")	–	1.21	1.03	0.9	0.63	0.69	0.91	0.86	0.91	0.95	0.5
CCCCc1ccc(N=Nc2c(S(=O)(=O)O)cc3cc(S(=O)(=O)O)c(N=Nc4ccc(C5(c6ccc(N=Nc7ccc(O)cc7O)cc6)CCCCC5)cc4)c(N)c3c2O)cc1 [Example 2]	–	15 g of dye/100 g of water	.circleincircle. (solubility is not less than 15)	Negative (When the resulting magnification is not more than 2, it is evaluated as "negative")	–	1.09	1.09	0.55	0.55	0.42	0.78	0.7	0.61	0.39	0.3
CCC(C)c1ccc(N=Nc2c(S(=O)(=O)O)cc3cc(S(=O)(=O)O)c(N=Nc4ccc(C5(c6ccc(N=Nc7ccc(N)cc7O)cc6)CCCCC5)cc4)c(N)c3c2O)cc1 (stereo not shown) [Example 3]	–	12 g of dye/100 g of water	.smallcircle. (solubility is within a range from 10 to 15)	Negative (When the resulting magnification is not more than 2, it is evaluated as "negative")	–	0.81	1.31	1	0.56	0.69	0.81	0.5	0.5	0.5	0.69
Nc1ccc(N=Nc2ccc(C3(c4ccc(N=Nc5c(S(=O)(=O)O)cc6cc(S(=O)(=O)O)c(N=Nc7ccccc7)c(O)c6c5N)cc4)CCCCC3)cc2)c(O)c1 [Example 4]	–	15 g of dye/100 g of water	.circleincircle. (solubility is not less than 15)	Negative (When the resulting magnification is not more than 2, it is evaluated as "negative")	–	1.44	1.4	1.08	1.16	0.96	1	0.93	1.07	0.87	0.93
